Where a SMILES comes first, the peptide text is derived from it.
What was measured:
in vitro = details: human, 100% human plasma
Procedure: At the end of incubation at each of the time points, acetonitrile was added to the incubation mixture, followed by centrifugation. Samples were analyzed by HPLC-MS/MS, and peak areas were recorded for each analyte. The area of precursor compound remaining after each time point relative to the amount remaining at time zero, expressed as percent, is calculated. Subsequently, the half-life (T1/2) is estimated from the slope of the initial linear range of the logarithmic curve of the compound remaining (%) versus time, assuming first-order kinetics. The plasma stability experiment was performed at Eurofins Inc. (San Diego, CA, USA) [56].

MRSA USA300 = experiment: Checkered board synergy assay with gentamicin; type: cell-based, Staphylococcus aureus
Procedure: (§1) An amount of 100 µL of [R4W4] peptide test solution at a final concentration of 512 µg/mL was added to each well A-G column 1 in plate A using a multi-channel pipette. A 50 µL MH Broth was added to micro-plate well A-G columns 2–9. Using a multi-channel pipette, a two-fold serial dilution was performed by removing 50 µL solution from column 1 and was added to column 2 with thorough mixing. The micro-pipette was discarded after each transfer. The last portion after column 9 was discarded. In another microplate, 100 µL MHB was added to well B-G columns 1–11 using a multi-channel pipette. A 200 µL gentamicin test solution 512 µg/mL was added to row A, columns 1–11. A two-fold serial dilution was performed by removing 100 µL from rows A to B. The last portion was discarded. Using eight multi-channel pipettes, 50 µL of gentamicin test solution was transferred in the ordinate column A-G row 1 to the first microplate. The plate was incubated at 37 °C for 18–24 h. The fractional inhibitory concentration (FIC) of the antibacterial agents and the fractional inhibitory concentration index (FICI) of the two antibacterial agents were determined to evaluate the synergistic interaction. The FICI was interpreted as follows: FICI ≤ 0.5, synergy; 0.5 < FICI ≤ 1, partial synergy; 1 ≤ FICI < 4, additive effect or indifference; 4 ≤ FICI antagonism and calculated from the mean values from multiple experiments.

E. coli 25922 = experiment: Checkered board synergy assay with gentamicin; type: cell-based, Escherichia coli
Procedure: as §1

With `N=C(N)NCCC[C@@H]1NC(=O)[C@H](CCCNC(=N)N)NC(=O)[C@H](CCCNC(=N)N)NC(=O)[C@H](Cc2c[nH]c3ccccc23)NC(=O)[C@H](Cc2c[nH]c3ccccc23)NC(=O)[C@H](Cc2c[nH]c3ccccc23)NC(=O)[C@H](Cc2c[nH]c3ccccc23)NC(=O)[C@H](CCCNC(=N)N)NC1=O` [[R4W4]] (cyclo(RRRRWWWW)) the half-life at 1 µM (in vitro) was about 1.43 h, the “MIC(A+B) ([R4W4] in combination with gentamicin)” value (MRSA USA300; MRSA USA300, checkered board) was 1.5 µg/mL and the “MICA ([R4W4] alone)” value (MRSA USA300; MRSA USA300, checkered board, 37 °C, 18–24 h, mean values from multiple experiments) was 6 µg/mL. The FICA (MRSA USA300; MRSA USA300, fractional inhibitory concentration of [R4W4]) was 0.25, the “reduction in MIC value in combination” value (MRSA USA300; MRSA, [R4W4] + gentamicin combination versus alone) was 4 fold and the “MIC(A+B) ([R4W4] in combination with gentamicin)” value (E. coli 25922; E. coli 25922, checkered board) was 1.5 µg/mL. For the same molecule, the “MICA ([R4W4] alone)” value (E. coli 25922; E. coli 25922, checkered board, 37 °C, 18–24 h, mean values from multiple experiments) was 32 µg/mL, the FICA (E. coli 25922; E. coli 25922, fractional inhibitory concentration of [R4W4]) was 0.05 and the “reduction in MIC value in combination” value (E. coli 25922; E. coli, [R4W4] + gentamicin combination versus alone) was 2 fold.
